Test results taken from the supplement of paper PMC10627819.

Columns and labels:
[1] = system: B. subtilis 168; test: fitness (endpoint OD595 vs no drug) (fraction); higher = more growth
Method in brief: (§1)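 Fitness compares growth at the stationary-phase transition with the robust mean of no-drug control wells, as a ratio of optical densities. The ratio is capped at 1. Wells of 384-well plates held 30 µl, or 55 µl for S. pneumoniae, inoculated at OD595 0.01. Readings at OD595 every 30 min for 14 h at 37 °C were corrected against the first reading.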

[2] = system: S. pneumoniae D39V; test: Bliss interaction score (quartile over a dose matrix) (fitness difference); higher = more antagonism (negative = synergy)
Method in brief: (§2)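 Fitness here means normalised growth, inferred for single drugs from the combination data. Growth was OD595 at entry into stationary phase, divided by the plate's robust no-drug mean and capped at 1. The Bliss score is observed minus expected fitness, with the expectation being the product, and its quartiles span technical, biological and donor/recipient replicates.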

[3] = system: S. aureus Newman; test: as above
Method in brief: as §2

[4] = system: S. aureus DSM 20231; test: as above
Method in brief: as §2

[5] = system: B. subtilis 168; test: as above
Method in brief: as §2

[6] = system: S. pneumoniae D39V; test: fitness (endpoint OD595 vs no drug) (fraction); higher = more growth; details: main component drawn
Method in brief: as §1
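Wherever Bliss interaction score (quartile over a dose matrix) is given: first quartile when negative (synergy) and third quartile when positive (antagonism).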
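Wherever fitness (endpoint OD595 vs no drug) is given: OD595 on entry to stationary phase over no-drug wells; at most 1.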

CCC[C@@H]1C[C@@H](C(=O)N[C@@H]([C@H]2O[C@H](SC)[C@H](O)[C@@H](O)[C@H]2O)[C@H](C)Cl)N(C)C1 [Clindamycin] + CO[C@@H]1[C@@H](OC(N)=O)[C@@H](O)[C@H](Oc2ccc3c(O)c(NC(=O)c4ccc(O)c(CC=C(C)C)c4)c(=O)oc3c2C)OC1(C)C [Novobiocin]
fitness, [1], one replicate
Details | first compound 0.0039 µg/mL | first compound 0.0078 µg/mL | first compound 0.0156 µg/mL | first compound 0.0625 µg/mL | first compound 0.125 µg/mL | first compound 0.25 µg/mL
partner 0.05 µg/mL | ≥ 1 | 0.895 | 0.867 | – | – | –
partner 0.1 µg/mL | ≥ 1 | 0.889 | 0.843 | – | – | –
partner 0.125 µg/mL | – | – | – | 0.526 | 0.496 | 0.348
partner 0.2 µg/mL | ≥ 1 | 0.903 | 0.818 | – | – | –
partner 0.25 µg/mL | – | – | – | 0.411 | 0.39 | 0.318
partner 0.5 µg/mL | – | – | – | 0.353 | 0.276 | 0.0724

fitness, [1]
Details | first compound 0.0625 µg/mL | first compound 0.125 µg/mL | first compound 0.25 µg/mL
partner 0.0125 µg/mL | 0.558 | 0.365 | 0.346
partner 0.025 µg/mL | 0.563 | 0.334 | 0.326
partner 0.05 µg/mL | 0.581 | 0.369 | 0.325

Details | Bliss interaction score
[2] | -0.102
[3] | 0.16
[4] | 0.0437
[5] | -0.063

COc1c(N2C[C@@H]3CCCN[C@@H]3C2)c(F)cc2c(=O)c(C(=O)O)cn(C3CC3)c12 [Moxifloxacin] + CCC(C)C1C(=O)NC(=C)C(=O)NC(C(=O)NC(CSCC(C(=O)N1)NC(=O)/C(=C/C)/NC(=O)C(C(C)CC)N)C(=O)NC2C(SCC(NC(=O)CNC(=O)C3CCCN3C2=O)C(=O)NC(CCCCN)C(=O)NC4C(SCC(NC(=O)CNC(=O)C(NC(=O)C(NC(=O)C(NC(=O)CNC4=O)C)CC(C)C)CCSC)C(=O)NC(CC(=O)N)C(=O)NC(CCSC)C(=O)NC(CCCCN)C(=O)NC5C(SCC6C(=O)NC(C(=O)NC(CSC(C(C(=O)N6)NC(=O)C(NC5=O)C)C)C(=O)NC(CO)C(=O)NC(C(C)CC)C(=O)NC(CC7=CN=CN7)C(=O)NC(C(C)C)C(=O)NC(=C)C(=O)NC(CCCCN)C(=O)O)CC8=CN=CN8)C)C)C)CC(C)C [Nisin]
fitness, [6]
Details | first compound 0.0037 µg/mL | first compound 0.005 µg/mL | first compound 0.0075 µg/mL | first compound 0.01 µg/mL | first compound 0.015 µg/mL | first compound 0.02 µg/mL
partner 0.4275 µg/mL | 0.993 | – | 0.971 | – | 0.898 | –
partner 0.855 µg/mL | 0.986 | – | 0.974 | – | 0.922 | –
partner 1.71 µg/mL | 0.0722 | – | 0.0723 | – | 0.089 | –
partner 6.4 µg/mL | – | 0.0381 | – | 0.0415 | – | 0.0317

fitness, [1], main component drawn
Details | first compound 0.0312 µg/mL | first compound 0.0625 µg/mL | first compound 0.125 µg/mL
partner 0.5 µg/mL | 0.0551 | 0.0449 | 0.0446
partner 1 µg/mL | 0.0324 | 0.0306 | 0.0343
partner 2 µg/mL | 0.0208 | 0.022 | 0.0231

fitness, [1], one replicate, main component drawn
Details | first compound 0.0312 µg/mL | first compound 0.0625 µg/mL | first compound 0.125 µg/mL | first compound 2 µg/mL | first compound 4 µg/mL | first compound 8 µg/mL
partner 0.5 µg/mL | – | – | – | 0.0297 | 0.0204 | 0.0134
partner 1 µg/mL | – | – | – | 0.0435 | 0.031 | 0.0236
partner 1.25 µg/mL | 0.0287 | 0.0387 | 0.0145 | – | – | –
partner 1.6 µg/mL | 0.0362 | 0.0251 | 0.0203 | – | – | –
partner 2 µg/mL | – | – | – | 0.0532 | 0.0341 | 0.0259
partner 2.5 µg/mL | 0.037 | 0.0186 | 0.0151 | – | – | –
partner 3.2 µg/mL | 0.0222 | 0.0273 | 0.0354 | – | – | –
partner 4 µg/mL | – | – | – | 0.0258 | 0.0254 | 0.0138
partner 5 µg/mL | 0.0373 | 0.0148 | 0.0138 | – | – | –
partner 6.4 µg/mL | 0.0438 | 0.0244 | 0.0155 | – | – | –
partner 8 µg/mL | – | – | – | 0.0213 | 0.0075 | 0.0166
partner 16 µg/mL | – | – | – | 0.008 | 0.0061 | 0.0096

main component drawn
Details | Bliss interaction score
[2] | 0.116
[3] | -0.0568
[4] | 0.0667
[5] | 0.0196

O=C(O[C@@H]1Cc2c(O)cc(O)cc2O[C@@H]1c1cc(O)c(O)c(O)c1)c1cc(O)c(O)c(O)c1 [EGCG] + CCC(C)C1C(=O)NC(=C)C(=O)NC(C(=O)NC(CSCC(C(=O)N1)NC(=O)/C(=C/C)/NC(=O)C(C(C)CC)N)C(=O)NC2C(SCC(NC(=O)CNC(=O)C3CCCN3C2=O)C(=O)NC(CCCCN)C(=O)NC4C(SCC(NC(=O)CNC(=O)C(NC(=O)C(NC(=O)C(NC(=O)CNC4=O)C)CC(C)C)CCSC)C(=O)NC(CC(=O)N)C(=O)NC(CCSC)C(=O)NC(CCCCN)C(=O)NC5C(SCC6C(=O)NC(C(=O)NC(CSC(C(C(=O)N6)NC(=O)C(NC5=O)C)C)C(=O)NC(CO)C(=O)NC(C(C)CC)C(=O)NC(CC7=CN=CN7)C(=O)NC(C(C)C)C(=O)NC(=C)C(=O)NC(CCCCN)C(=O)O)CC8=CN=CN8)C)C)C)CC(C)C [Nisin]
fitness, [6]
Details | partner 0.4275 µg/mL | partner 0.855 µg/mL | partner 1.6 µg/mL | partner 1.71 µg/mL | partner 3.2 µg/mL | partner 6.4 µg/mL
first compound 12.5 µg/mL | 0.965 | 0.989 | 0.0156 | 0.105 | 0.0612 | 0.08
first compound 25 µg/mL | 0.967 | ≥ 1 | 0.0307 | 0.131 | – | 0.046
first compound 50 µg/mL | 0.982 | ≥ 1 | – | 0.244 | – | 0.0006

fitness, [1], main component drawn
Details | first compound 6.25 µg/mL | first compound 12.5 µg/mL | first compound 25 µg/mL
partner 0.5 µg/mL | 0.853 | 0.761 | –
partner 1 µg/mL | 0.813 | 0.619 | –
partner 2 µg/mL | 0.432 | 0.308 | 0.21

fitness, [1], one replicate, main component drawn
Details | partner 1.25 µg/mL | partner 1.6 µg/mL | partner 2.5 µg/mL | partner 3.2 µg/mL | partner 4 µg/mL | partner 5 µg/mL | partner 6.4 µg/mL | partner 8 µg/mL | partner 16 µg/mL
first compound 6.25 µg/mL | ≥ 1 | 0.616 | 0.682 | 0.0933 | 0.0068 | 0.154 | 0.0135 | 0.069 | 0.0181
first compound 12.5 µg/mL | 0.625 | 0.199 | 0.282 | 0.0301 | 0.0461 | 0.0396 | 0.0233 | 0.0351 | 0.0262
first compound 25 µg/mL | 0.247 | 0.0657 | 0.0742 | 0.0436 | 0.0163 | 0.0343 | 0.0151 | 0.044 | 0.0094

main component drawn
Details | Bliss interaction score
[2] | 0.11
[3] | 0.134
[4] | 0.165
[5] | -0.0674
